The text below walks through data of paper PMC4639830, “Inhibition of DYRK1A and GSK3B induces human β-cell proliferation” (Nature Communications, 2015).

What all share (assay): Kinase profiling
Holding throughout (format): biochemical

In one test the target is T1, EphA3 (Homo sapiens, UniProt P29320).
T1 construct: purchased Ambit KINOMEscan
Particulars: Conc 1000 nM; read-out: Percent inhibition, EphA3. An excerpt:
(§1) ; Fig. 5a; Supplementary Table 1). We focused on Dyrk1a because other kinases inhibited by aminopyrazine compounds were not highly expressed in β-cells and because Dyrk1a was known to inhibit the NFAT pathway that was previously implicated in β-cell proliferation. We used molecular modelling to dock the aminopyrazine compounds into the published structure of Dyrk1a (protein databank accession code 2vx3.pdb; Fig. 5b).

Another test deals with T2, InsR (Homo sapiens, UniProt P06213).
T2 construct: purchased Ambit KINOMEscan
Particulars: Conc 1000 nM; read-out: Percent inhibition, InsR.
From the text: as §1

For the next test, the target named is T3, c-Kit (Homo sapiens, UniProt P10721).
T3 construct: purchased Ambit KINOMEscan
The settings on record: Conc 1000 nM; read-out: Percent inhibition, c-Kit.
From the text: as §1

A further test has as its target T4, PLK1 (Homo sapiens, UniProt P53350).
T4 construct: purchased Ambit (KINOMEscan)
Particulars: Conc 1000 nM; read-out: Percent inhibition, PLK1.
From the text: as §1

Another test concerns the target T5, SGK1 (Homo sapiens, UniProt O00141).
T5 construct: purchased Ambit (KINOMEscan)
Particulars: Conc 1000 nM; read-out: Percent inhibition, SGK1.
From the text: as §1

For a further test, the target named is T6, AKT3 (Homo sapiens, UniProt Q9Y243).
T6 construct: purchased Ambit KINOMEscan
Particulars: Conc 1000 nM; read-out: Percent inhibition, AKT3.
From the text: as §1

For another test, the target named is T7, IRAK4 (Homo sapiens, UniProt Q9NWZ3).
T7 construct: purchased Ambit KINOMEscan
T7 sequence (Q9NWZ3 whole entry): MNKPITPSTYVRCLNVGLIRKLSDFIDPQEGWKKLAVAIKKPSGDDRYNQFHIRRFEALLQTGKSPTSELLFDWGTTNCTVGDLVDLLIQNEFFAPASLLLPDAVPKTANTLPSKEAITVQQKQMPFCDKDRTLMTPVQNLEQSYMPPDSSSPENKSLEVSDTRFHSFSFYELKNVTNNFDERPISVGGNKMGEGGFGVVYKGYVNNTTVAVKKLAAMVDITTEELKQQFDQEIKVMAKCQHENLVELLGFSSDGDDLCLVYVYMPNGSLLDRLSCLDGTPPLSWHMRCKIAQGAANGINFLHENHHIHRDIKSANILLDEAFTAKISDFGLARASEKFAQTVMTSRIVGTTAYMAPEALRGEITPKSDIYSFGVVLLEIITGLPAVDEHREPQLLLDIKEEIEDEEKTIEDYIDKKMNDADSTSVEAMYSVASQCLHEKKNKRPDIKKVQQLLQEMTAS
The settings on record: Conc 1000 nM; read-out: Percent inhibition, IRAK4.
From the text: as §1

The target of the next test is T8, p38delta (MAPK13) (Homo sapiens, UniProt O15264).
T8 construct: purchased Ambit (KINOMEscan)
Particulars: Conc 1000 nM; read-out: Percent inhibition, p38delta (MAPK13).
From the text: as §1

Another test concerns the target T9, Flt-3 (Homo sapiens, UniProt P36888).
T9 construct: purchased Ambit KINOMEscan
T9 sequence (P36888 27-993): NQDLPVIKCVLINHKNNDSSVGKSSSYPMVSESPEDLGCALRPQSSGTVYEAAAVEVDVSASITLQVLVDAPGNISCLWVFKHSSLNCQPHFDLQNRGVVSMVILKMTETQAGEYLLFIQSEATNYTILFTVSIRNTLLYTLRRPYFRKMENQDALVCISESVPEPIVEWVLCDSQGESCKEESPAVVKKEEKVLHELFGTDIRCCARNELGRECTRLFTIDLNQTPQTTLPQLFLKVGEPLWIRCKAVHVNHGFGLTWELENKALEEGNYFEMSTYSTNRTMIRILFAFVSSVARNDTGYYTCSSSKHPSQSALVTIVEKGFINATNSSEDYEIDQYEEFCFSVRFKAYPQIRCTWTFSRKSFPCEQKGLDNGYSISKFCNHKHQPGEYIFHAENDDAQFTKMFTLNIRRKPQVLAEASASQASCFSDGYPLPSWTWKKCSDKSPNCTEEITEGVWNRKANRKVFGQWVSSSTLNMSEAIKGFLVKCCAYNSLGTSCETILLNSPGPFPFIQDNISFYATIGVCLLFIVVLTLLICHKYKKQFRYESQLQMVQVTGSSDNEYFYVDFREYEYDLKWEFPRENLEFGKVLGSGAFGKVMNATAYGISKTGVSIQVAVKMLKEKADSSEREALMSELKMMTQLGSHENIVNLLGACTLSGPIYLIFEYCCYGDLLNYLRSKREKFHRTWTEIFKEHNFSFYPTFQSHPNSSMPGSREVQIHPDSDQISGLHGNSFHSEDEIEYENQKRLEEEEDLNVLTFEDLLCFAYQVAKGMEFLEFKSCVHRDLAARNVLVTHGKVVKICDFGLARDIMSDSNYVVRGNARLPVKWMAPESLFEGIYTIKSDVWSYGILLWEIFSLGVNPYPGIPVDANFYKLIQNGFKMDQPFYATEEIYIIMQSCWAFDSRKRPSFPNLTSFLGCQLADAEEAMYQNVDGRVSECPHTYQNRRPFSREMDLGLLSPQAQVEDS
Particulars: read-out: Percent inhibition, Flt-3; for inhibition at 1 µM: Conc 1000 nM.
From the text: as §1

The target in another test is T10, PDGFRa (Homo sapiens, UniProt P16234).
T10 construct: purchased Ambit (KINOMEscan)
T10 sequence (P16234 24-1089): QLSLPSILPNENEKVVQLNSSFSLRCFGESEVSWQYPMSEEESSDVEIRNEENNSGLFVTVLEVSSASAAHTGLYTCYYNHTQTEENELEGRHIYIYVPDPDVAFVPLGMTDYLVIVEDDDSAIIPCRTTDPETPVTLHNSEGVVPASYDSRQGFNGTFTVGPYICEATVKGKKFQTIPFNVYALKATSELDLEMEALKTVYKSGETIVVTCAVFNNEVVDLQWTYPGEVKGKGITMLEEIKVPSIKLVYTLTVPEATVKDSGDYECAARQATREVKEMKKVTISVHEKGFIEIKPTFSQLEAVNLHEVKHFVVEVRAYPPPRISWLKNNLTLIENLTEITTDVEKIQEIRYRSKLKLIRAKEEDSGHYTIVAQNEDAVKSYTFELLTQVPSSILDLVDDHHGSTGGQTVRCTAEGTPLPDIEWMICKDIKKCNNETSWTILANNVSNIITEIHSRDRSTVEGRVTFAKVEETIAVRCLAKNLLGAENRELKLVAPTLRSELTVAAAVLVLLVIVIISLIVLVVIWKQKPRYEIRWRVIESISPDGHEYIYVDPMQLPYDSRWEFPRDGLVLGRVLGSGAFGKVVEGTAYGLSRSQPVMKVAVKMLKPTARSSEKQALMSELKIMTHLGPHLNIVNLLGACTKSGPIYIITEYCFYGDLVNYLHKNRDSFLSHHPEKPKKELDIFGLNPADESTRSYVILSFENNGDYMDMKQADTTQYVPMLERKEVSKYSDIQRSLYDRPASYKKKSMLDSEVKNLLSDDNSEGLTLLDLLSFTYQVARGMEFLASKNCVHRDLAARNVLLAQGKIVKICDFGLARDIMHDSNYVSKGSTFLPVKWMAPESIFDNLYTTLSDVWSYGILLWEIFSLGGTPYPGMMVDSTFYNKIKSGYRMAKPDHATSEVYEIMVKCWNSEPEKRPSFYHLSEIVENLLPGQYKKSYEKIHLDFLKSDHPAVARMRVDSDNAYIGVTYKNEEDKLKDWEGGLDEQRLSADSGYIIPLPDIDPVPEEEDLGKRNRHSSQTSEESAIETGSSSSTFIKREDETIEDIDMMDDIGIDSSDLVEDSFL
Particulars: read-out: Percent inhibition, PDGFRa; for inhibition at 1 µM: Conc 1000 nM.
From the text: as §1

In the next test the target is T11, Abl (Homo sapiens, UniProt P00519).
T11 construct: purchased Ambit KINOMEscan
T11 sequence (P00519 whole entry): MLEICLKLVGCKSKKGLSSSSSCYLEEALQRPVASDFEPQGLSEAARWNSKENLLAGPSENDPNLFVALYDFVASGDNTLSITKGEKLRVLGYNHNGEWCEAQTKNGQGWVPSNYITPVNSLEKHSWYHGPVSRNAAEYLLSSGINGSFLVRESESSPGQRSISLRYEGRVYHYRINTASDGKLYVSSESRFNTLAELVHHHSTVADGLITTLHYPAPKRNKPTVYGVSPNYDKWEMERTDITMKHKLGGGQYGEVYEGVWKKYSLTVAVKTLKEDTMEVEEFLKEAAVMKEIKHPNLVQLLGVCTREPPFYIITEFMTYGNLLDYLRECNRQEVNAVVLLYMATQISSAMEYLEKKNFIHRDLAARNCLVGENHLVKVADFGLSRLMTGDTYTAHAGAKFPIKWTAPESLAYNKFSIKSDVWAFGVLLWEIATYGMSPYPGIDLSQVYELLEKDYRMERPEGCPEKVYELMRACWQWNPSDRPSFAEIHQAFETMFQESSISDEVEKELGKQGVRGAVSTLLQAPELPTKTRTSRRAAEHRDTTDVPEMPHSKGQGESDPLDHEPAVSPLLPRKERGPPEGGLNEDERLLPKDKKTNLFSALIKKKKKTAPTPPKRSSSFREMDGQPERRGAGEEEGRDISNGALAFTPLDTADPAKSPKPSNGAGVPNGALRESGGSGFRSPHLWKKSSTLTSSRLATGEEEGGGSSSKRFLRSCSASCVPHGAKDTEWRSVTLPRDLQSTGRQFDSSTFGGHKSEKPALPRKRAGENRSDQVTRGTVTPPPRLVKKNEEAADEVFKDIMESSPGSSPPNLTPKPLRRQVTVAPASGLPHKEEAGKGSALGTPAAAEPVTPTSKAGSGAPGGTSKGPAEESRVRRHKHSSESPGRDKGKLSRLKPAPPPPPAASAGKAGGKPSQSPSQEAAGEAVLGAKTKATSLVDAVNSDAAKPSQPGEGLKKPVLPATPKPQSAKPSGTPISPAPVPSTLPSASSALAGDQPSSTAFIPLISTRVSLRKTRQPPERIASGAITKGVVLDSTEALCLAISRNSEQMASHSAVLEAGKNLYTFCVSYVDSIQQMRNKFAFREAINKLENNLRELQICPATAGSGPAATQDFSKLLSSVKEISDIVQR
The settings on record: Conc 1000 nM; read-out: Percent inhibition, Abl.
From the text: as §1

For a further test, the target named is T12, SRC (Homo sapiens, UniProt P12931).
T12 construct: purchased Ambit (KINOMEscan)
T12 sequence (P12931 whole entry): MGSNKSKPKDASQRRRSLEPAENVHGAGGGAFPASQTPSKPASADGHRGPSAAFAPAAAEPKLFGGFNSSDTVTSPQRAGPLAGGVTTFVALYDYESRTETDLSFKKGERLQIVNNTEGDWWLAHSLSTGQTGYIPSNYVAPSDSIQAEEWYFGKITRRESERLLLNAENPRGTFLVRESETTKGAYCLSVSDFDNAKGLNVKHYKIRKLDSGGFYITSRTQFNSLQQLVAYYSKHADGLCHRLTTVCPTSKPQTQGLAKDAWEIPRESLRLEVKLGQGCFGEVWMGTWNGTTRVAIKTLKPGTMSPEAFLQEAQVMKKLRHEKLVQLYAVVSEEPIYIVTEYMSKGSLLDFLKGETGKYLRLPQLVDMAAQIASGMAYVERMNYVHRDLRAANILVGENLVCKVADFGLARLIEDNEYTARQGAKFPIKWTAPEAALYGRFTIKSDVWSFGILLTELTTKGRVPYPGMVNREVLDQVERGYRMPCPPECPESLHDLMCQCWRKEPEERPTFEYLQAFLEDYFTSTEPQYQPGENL
The settings on record: Conc 1000 nM; read-out: Percent inhibition, SRC.
From the text: as §1

The target in a further test is T13, JAK2 (Homo sapiens, UniProt O60674).
T13 construct: purchased Ambit KINOMEscan
T13 sequence (O60674 whole entry): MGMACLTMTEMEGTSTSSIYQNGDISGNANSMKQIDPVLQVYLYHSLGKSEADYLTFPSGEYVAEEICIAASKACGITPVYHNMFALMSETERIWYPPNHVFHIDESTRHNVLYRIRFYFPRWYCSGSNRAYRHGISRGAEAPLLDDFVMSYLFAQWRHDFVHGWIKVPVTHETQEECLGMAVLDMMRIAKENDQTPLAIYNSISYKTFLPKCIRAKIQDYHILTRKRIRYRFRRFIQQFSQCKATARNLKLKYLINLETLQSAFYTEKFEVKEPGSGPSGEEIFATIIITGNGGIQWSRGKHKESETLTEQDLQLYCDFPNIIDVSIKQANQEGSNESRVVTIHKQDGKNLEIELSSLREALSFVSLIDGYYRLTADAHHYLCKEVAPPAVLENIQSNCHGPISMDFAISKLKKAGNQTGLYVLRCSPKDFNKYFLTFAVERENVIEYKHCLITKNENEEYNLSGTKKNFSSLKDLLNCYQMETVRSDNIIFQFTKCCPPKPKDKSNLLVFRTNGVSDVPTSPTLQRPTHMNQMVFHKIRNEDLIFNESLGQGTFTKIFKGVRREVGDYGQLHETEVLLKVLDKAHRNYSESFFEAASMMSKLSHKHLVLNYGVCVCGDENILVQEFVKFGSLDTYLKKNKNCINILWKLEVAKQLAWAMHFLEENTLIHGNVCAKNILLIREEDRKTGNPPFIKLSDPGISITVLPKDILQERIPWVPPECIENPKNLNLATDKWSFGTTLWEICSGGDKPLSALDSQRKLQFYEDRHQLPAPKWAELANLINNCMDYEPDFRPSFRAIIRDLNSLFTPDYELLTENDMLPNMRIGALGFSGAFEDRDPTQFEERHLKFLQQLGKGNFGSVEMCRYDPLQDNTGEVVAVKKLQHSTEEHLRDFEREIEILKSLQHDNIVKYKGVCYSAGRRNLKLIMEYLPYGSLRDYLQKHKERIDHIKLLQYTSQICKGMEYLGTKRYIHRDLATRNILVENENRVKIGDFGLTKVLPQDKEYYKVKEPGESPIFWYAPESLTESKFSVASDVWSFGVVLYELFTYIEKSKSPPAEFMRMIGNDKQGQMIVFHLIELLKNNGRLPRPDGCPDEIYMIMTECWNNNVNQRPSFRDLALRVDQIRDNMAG
Particulars: read-out: Percent inhibition, JAK2; for inhibition at 1 µM: Conc 1000 nM.
From the text: as §1

T5 sequence (O00141 whole entry): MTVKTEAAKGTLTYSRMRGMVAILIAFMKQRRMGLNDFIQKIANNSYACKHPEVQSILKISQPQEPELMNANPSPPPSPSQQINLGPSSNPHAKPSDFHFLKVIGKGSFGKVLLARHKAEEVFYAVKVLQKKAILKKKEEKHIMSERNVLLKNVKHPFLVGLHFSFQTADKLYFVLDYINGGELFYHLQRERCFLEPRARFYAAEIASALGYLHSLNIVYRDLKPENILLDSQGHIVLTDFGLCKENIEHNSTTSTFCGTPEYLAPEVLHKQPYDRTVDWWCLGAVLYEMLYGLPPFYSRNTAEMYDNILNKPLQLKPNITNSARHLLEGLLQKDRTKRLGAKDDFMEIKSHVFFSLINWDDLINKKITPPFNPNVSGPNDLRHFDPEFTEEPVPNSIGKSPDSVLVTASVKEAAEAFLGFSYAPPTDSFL

With `Nc1ncc(-c2ccccc2)nc1C(=O)Nc1cnccc1N1CCC(C(=O)O)CC1` [GNF7156], the inhibition at 1 µM at EphA3 was determined as 82%; on InsR, 24%; at c-Kit, 49%; on PLK1, 85%; at SGK1 it was 39%; on AKT3 it was 7%. The inhibition at 1 µM turned out to be 25% at IRAK4; 10% at p38delta (MAPK13); 64% at Flt-3; 78% at PDGFRa; 90% at Abl; 61% on SRC. For the same compound, at JAK2, the inhibition at 1 µM turned out to be 92%.
`CC(C)Oc1ccc(F)c(-c2cnc(N)c(C(=O)Nc3cnccc3N3CCC[C@@H](C(=O)O)C3)n2)c1` [GNF4877]: the inhibition at 1 µM on EphA3 is 63%; on InsR, 51%; on c-Kit, 77%; on PLK1, 22%; on SGK1 it was 67%; on AKT3 it was 25%. In addition, the inhibition at 1 µM on IRAK4 was found to be 52%; at p38delta (MAPK13), 13%; on Flt-3, 86%; on PDGFRa, 88%; at Abl, 66%; on SRC, 64%. Further, the inhibition at 1 µM at JAK2 worked out at 95%. In addition, the values for the inhibition at 0.2 µM at Flt-3 (Conc 200 nM), at PDGFRa (Conc 200 nM) and on JAK2 (Conc 200 nM) were 36%, 0% and 2%, respectively.
